Experiment [1] has as its target Human norepinephrine transporter (NET) (Homo sapiens, UniProt P23975). The experiment in a line: Binding assay to human norepinephrine transporter (NET), [3H]-Nisoxetin. As to conditions: human NET enriched membranes, 5 nM [3H]-Nisoxetin; read-out: Ki (nM) NET Hum. The procedure, abridged: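 NET-enriched membranes (5 μg) incubated with 5 nM [3H]-nisoxetin in 50 mM Tris-HCl, 120 mM NaCl, 5 mM KCl, pH 7.4, for 60 min at 4 °C. Separation by filtration on PEI-soaked GF/C, then scintillation counting.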

For experiment [2], the target named is Human α2δ-1 subunit of Cav2.2 calcium channel (Homo sapiens, UniProt P54289). The experiment in a line: Binding assay to human α2δ-1 subunit of Cav2.2 calcium channel, [3H]-Gabapentin. As to conditions: human α2δ-1 enriched membranes, 15 nM [3H]-Gabapentin; read-out: Ki (nM) alpha2delta Hum. In short, it runs like this: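 Human α2δ-1-enriched membranes incubated with 15 nM [3H]-gabapentin in 10 mM Hepes-KOH pH 7.4, 60 min at 27 °C; nonspecific binding defined with 10 μM pregabalin. Bound ligand separated by filtration on PEI-presoaked GF/C filters, washed with ice-cold 50 mM Tris-HCl pH 7.4, counted by scintillation.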
Human α2δ-1 subunit of Cav2.2 calcium channel, sequence (P54289 25-1103): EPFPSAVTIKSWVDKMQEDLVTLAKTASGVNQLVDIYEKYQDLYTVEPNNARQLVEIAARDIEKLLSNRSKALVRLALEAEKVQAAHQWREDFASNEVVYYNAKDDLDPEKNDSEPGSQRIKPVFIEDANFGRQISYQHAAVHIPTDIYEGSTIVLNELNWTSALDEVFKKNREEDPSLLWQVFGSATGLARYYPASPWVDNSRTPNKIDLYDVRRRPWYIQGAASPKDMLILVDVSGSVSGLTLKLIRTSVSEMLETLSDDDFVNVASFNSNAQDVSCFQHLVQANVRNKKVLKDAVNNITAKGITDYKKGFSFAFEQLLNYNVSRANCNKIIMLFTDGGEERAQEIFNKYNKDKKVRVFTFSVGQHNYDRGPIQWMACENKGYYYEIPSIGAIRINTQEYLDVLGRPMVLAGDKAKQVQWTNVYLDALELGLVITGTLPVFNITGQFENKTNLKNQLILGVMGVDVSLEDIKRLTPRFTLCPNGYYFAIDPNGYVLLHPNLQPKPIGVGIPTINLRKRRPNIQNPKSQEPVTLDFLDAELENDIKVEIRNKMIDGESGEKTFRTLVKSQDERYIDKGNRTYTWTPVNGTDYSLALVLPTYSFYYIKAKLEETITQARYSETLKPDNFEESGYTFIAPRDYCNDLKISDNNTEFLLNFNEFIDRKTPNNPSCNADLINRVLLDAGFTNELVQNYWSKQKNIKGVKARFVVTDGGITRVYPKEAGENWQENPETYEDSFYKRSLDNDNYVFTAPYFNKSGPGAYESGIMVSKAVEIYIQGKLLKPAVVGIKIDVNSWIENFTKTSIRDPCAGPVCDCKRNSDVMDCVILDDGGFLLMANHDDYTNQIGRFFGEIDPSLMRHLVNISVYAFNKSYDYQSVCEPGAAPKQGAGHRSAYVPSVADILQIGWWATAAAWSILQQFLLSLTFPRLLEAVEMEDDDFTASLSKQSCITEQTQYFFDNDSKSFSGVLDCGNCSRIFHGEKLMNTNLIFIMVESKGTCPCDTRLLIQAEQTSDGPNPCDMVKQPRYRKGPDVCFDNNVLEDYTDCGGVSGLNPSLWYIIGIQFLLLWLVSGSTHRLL

Structures can show the parent of a compound that is named as a salt. Bounds are passed on as bounds.

Human norepinephrine transporter (NET), sequence (P23975 whole entry): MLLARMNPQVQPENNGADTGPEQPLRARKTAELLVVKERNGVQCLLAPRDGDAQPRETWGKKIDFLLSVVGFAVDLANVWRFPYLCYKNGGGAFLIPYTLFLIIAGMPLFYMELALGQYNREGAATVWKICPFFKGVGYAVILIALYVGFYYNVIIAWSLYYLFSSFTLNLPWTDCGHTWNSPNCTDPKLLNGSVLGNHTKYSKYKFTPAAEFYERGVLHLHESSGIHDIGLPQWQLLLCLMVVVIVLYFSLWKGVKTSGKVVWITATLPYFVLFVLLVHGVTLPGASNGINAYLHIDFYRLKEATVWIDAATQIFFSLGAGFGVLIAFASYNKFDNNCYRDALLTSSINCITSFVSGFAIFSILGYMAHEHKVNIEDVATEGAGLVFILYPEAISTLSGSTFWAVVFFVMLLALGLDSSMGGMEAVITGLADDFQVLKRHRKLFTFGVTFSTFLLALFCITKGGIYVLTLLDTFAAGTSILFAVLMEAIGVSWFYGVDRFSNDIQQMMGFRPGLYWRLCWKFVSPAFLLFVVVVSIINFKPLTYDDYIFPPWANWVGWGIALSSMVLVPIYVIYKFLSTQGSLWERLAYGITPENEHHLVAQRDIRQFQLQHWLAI

Turning to `CNCCC(c1cccs1)N1CC(C)(C)c2c(C#N)cccc21` (centres unmarked) [Example 100, 3,3-Dimethyl-1-(3-(methylamino)-1-(thiophen-2-yl)propyl)indoline-4-carbonitrile], the Ki was more than 1000 nM in experiment [1] and less than 100 nM in experiment [2].

Turning to `CNCC[C@@H](c1ccsc1)N1CCc2ncc(C)cc21` [Example 102, (S)—N-methyl-3-(6-methyl-2,3-dihydro-1H-pyrrolo[3,2-b]pyridin-1-yl)-3-(thiophen-3-yl)propan-1-amine], the Ki in experiment [1] was more than 1000 nM; in experiment [2], 500 to 3000 nM.

On to `CNCC[C@H](c1ccsc1)N1CCc2ncc(C)cc21` [Example 103, (R)—N-methyl-3-(6-methyl-2,3-dihydro-1H-pyrrolo[3,2-b]pyridin-1-yl)-3-(thiophen-3-yl)propan-1-amine], for which the Ki was more than 1000 nM in experiment [1] and 100 to 500 nM in experiment [2].

Turning to `CNCCC(c1ccsc1)N1CC(C)(C)c2nc(C#N)ccc21` (centres unmarked) [Example 104, 3,3-Dimethyl-1-(3-(methylamino)-1-(thiophen-3-yl)propyl)-2,3-dihydro-1H-pyrrolo[3,2-b]pyridine-5-carbonitrile Hydrochloride], the Ki in experiment [1] was more than 1000 nM; in experiment [2], 100 to 500 nM.

`CNCC[C@@H](c1cccs1)N1CC(C)(C)c2ncc(F)cc21` [Example 105, (S)-3-(6-Fluoro-3,3-dimethyl-2,3-dihydro-1H-pyrrolo[3,2-b]pyridin-1-yl)-N-methyl-3-(thiophen-2-yl)propan-1-amine]: the Ki in experiment [1] was more than 1000 nM; in experiment [2], 500 to 3000 nM.

Turning to `CNCC[C@H](c1cccs1)N1CC(C)(C)c2ncc(F)cc21` [Example 106, (R)-3-(6-fluoro-3,3-dimethyl-2,3-dihydro-1H-pyrrolo[3,2-b]pyridin-1-yl)-N-methyl-3-(thiophen-2-yl)propan-1-amine], the figures for the Ki in experiment [1] and in experiment [2] were more than 1000 nM and less than 100 nM, respectively.

As to `CNCC[C@@H](c1ccsc1)N1CC(C)(C)c2nc(C(F)(F)F)ccc21` [Example 107, (S)-3-(3,3-Dimethyl-5-(trifluoromethyl)-2,3-dihydro-1H-pyrrolo[3,2-b]pyridin-1-yl)-N-methyl-3-(thiophen-3-yl)propan-1-amine], the Ki in experiment [1] and in experiment [2] was 100 to 500 nM each time.

On to `CNCC[C@H](c1ccsc1)N1CC(C)(C)c2nc(C(F)(F)F)ccc21` [Example 108, (R)-3-(3,3-dimethyl-5-(trifluoromethyl)-2,3-dihydro-1H-pyrrolo[3,2-b]pyridin-1-yl)-N-methyl-3-(thiophen-3-yl)propan-1-amine], for which the figures for the Ki in experiment [1] and in experiment [2] were more than 1000 nM and 100 to 500 nM, respectively.

Turning to `CNCC[C@@H](c1cccs1)N1CC(C)(C)c2ncc(Cl)cc21` [Example 109, (S)-3-(6-Chloro-3,3-dimethyl-2,3-dihydro-1H-pyrrolo[3,2-b]pyridin-1-yl)-N-methyl-3-(thiophen-2-yl)propan-1-amine], the figures for the Ki in experiment [1] and in experiment [2] were more than 1000 nM and not below 3000 nM, respectively.

As for `CNCC[C@H](c1cccs1)N1CC(C)(C)c2ncc(Cl)cc21` [Example 110, (R)-3-(6-chloro-3,3-dimethyl-2,3-dihydro-1H-pyrrolo[3,2-b]pyridin-1-yl)-N-methyl-3-(thiophen-2-yl)propan-1-amine], the figures for the Ki in experiment [1] and in experiment [2] were more than 1000 nM and 100 to 500 nM, respectively.

`CNCC[C@@H](c1cccs1)N1CCc2c(C#N)cccc21` [Example 111, (S)-1-(3-(Methylamino)-1-(thiophen-2-yl)propyl)indoline-4-carbonitrile]: the Ki in experiment [1] is less than 100 nM; in experiment [2], 500 to 3000 nM.

Take `CNCC[C@@H](c1cccs1)N1CCc2c(C#N)cccc21` [Example 112, (S)-1-(3-(methylamino)-1-(thiophen-2-yl)propyl)indoline-4-carbonitrile]: the Ki in experiment [1] was more than 1000 nM; in experiment [2] it was 100 to 500 nM.

Take `CNCC[C@@H](c1cccs1)N1CC(C)(C)c2nc(OC)ccc21` [Example 113, (S)-3-(5-Methoxy-3,3-dimethyl-2,3-dihydro-1H-pyrrolo[3,2-b]pyridin-1-yl)-N-methyl-3-(thiophen-2-yl)propan-1-amine]: the Ki in experiment [1] was in the range of 500 to 1000 nM; in experiment [2], 500 to 3000 nM.
